These results are taken from patent US20250129067A1 (Progentos Therapeutics, Inc., priority 2021, published 2025).

Read-outs that look alike come from different tables or passages of the source.

In series [1] the target is PDGFRα (Homo sapiens (Human), UniProt P16234). Description: PDGFRα kinase enzyme assay (Promega PDGFRα Kinase Enzyme System, ADP-Glo). It is filed as biochemical. Particulars: 150 uM ATP. In short, it runs like this: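 Purified PDGFRα protein (20 ng) reacted with test compound per the Promega kinase system protocol. ADP formed was measured by ADP-Glo luminescence against a standard curve, giving IC50.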
Sequence of PDGFRα (P16234 24-1089): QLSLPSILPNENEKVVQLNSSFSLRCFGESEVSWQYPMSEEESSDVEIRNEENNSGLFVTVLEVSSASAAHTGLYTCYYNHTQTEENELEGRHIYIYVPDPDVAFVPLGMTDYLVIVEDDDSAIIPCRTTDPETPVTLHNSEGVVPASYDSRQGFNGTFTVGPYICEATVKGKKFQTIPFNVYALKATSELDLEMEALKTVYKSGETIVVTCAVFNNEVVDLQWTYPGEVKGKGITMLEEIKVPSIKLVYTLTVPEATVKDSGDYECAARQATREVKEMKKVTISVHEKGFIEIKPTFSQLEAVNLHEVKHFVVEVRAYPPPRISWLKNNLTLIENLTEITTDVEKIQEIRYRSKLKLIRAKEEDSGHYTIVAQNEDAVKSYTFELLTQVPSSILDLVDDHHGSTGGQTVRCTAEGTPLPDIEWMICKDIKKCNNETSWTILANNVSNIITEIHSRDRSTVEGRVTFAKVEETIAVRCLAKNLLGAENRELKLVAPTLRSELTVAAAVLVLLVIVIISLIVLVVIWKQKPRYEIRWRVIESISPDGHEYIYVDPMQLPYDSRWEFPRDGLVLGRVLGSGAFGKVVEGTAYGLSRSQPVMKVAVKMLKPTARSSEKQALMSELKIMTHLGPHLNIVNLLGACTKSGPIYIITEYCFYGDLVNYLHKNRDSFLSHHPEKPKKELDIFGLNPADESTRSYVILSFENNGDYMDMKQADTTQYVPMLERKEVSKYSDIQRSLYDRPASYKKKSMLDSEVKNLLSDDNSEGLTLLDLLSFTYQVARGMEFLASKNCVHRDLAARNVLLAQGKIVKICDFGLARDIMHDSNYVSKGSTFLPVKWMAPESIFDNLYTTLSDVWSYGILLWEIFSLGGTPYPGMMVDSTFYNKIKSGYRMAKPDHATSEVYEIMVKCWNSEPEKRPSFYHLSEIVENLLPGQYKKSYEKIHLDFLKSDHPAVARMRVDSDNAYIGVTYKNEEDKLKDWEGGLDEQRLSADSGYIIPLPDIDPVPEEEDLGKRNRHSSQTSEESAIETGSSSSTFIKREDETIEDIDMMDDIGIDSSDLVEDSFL

In series [2] the test system is Oligodendrocyte progenitor cells (OPCs).
For series [3] the test system is unchanged. The source holds these as a separate data set.
For series [4] the test system is unchanged. In words: In vitro OPC differentiation assay, GPR17 expression (immunocytochemistry). The conditions noted are these: 72 hours, fold change over vehicle; for GPR17 Fold Induction (Over Vehicle; 3 μM): 3 μM (10× concentration, final 0.3 μM).
Series [5] concerns GPR17+ cells (newly differentiated oligodendrocytes). Description: In vivo OPC differentiation, GPR17+ cells in brain. Particulars: Mus musculus, po, 24 h, read-out: GPR17 Fold Induction (Over Vehicle).
The subject of series [6] is Oligodendrocyte progenitor cells (OPCs). In words: In vitro OPC differentiation assay, MBP expression (immunocytochemistry). Particulars: 72 hours of treatment; fold change over vehicle.
For series [7], the system named is newly generated, GPR17+, oligodendrocytes. Description: in vivo GPR17 assay / in vivo OPC differentiation assay (Examples 242, 245). The conditions noted are these: healthy mice, single oral dose of 0.1, 0.33, 1 or 3.3 mg/kg, versus vehicle, n=8 mice per group. The method, then:
FIGS. 2A and 2B provide representative immunohistochemistry images comparing the in vivo generation of new oligodendrocytes in the brains of mice treated with one of the following: (i) vehicle control (FIG. 2A), or (ii) PDGFRα inhibitor (Compound 6) (PO 5 mg/kg; single dose) (FIG. 2B). The newly generated oligodendrocytes are identified based on upregulation of GPR 17 expression.
Healthy mice received a single oral dose of 0.1 (“2”), 0.33 (“3”), 1 (“4”), or 3.3 (“5”) mg/kg of PDGFRα inhibitor (Compound 26). Control mice received a vehicle control (“1”). The number of newly generated, GPR17+, oligodendrocytes/mm^2 was quantitated via automated image analysis from sections spanning the anterio-posterior axis of the brain. […]
As described elsewhere in the present disclosure, some exemplary PDGFRα inhibitors of the present disclosure are capable of have greater therapeutic effect than inhibitors known in the art, e.g., when an inhibitor known in the art and an exemplary inhibitor provided herein are assayed against a vehicle control. […] For example, in some aspects, a PDGFRα inhibitor of the present disclosure can achieve greater than 2-fold increase in GPR17 expression compared to a vehicle control at a dose of less than 50 mg/kg, as measured using an in vivo GPR17 assay (such as that described in Example 242). […]

Series [8] in a line: In vivo half-life. The conditions noted are these: comparison in words.
For series [9], the system named is NG2+ cells (OPCs) in brain. In words: OPC population recovery after administration of PDGFRα inhibitor, NG2 staining. It is filed as in vivo, C57BL/6 mice. Particulars: mice. The method, then: OPCs first appear during embryonic organogenesis and continue to exist in adult brain (in both gray and white matter), maintaining their population through self-renewal. To assess whether PDGFRα inhibitors described herein have an effect on the maintenance of the OPC population when administered in vivo, two different PDGFRα inhibitors were tested, each having a different in vivo half-life. Then, the expression of NG2 (marker for OPCs) was assessed in the brains of the treated mice at various time points after treatment as described in more detail below.
The mice received a single administration of either Compound 6 (10 mg/kg) or Compound 78 (5 mg/kg). Control animals received a vehicle control. Then, at days 3, 6, 9, or 12 days after dosing, some of the animals from each of the treatment groups were sacrificed and their brains were harvested for analysis.
The floating sections were incubated with a rabbit anti-NG2 antibody (EMD Millipore, catalog no. AB5320) (i.e., the primary antibody) diluted in blocking solution (to a concentration of 1:1000) overnight at room temperature on a shaker.
NG2 staining was assessed by an observer blinded to the treatment condition and given a score from 1 to 5, with 5 representing the level of OPC population observed in naïve animals that had not received an exemplar PDGFRα inhibitor.

The subject of series [10] is GPR17+ cells in brain tissue. Description: Differentiation of newly generated OPCs after a second dose, GPR17+ cells. It is filed as in vivo, C57BL/6 mice. The method, then: Further to the results provided above in Example 244, it was assessed whether OPCs that are newly generated (i.e., through self-renewal) after PDGFRα inhibitor administration have the ability to differentiate into mature oligodendrocytes. As described below, testing this made use of the transient characteristics of GPR17 expression. […] Therefore, the effects of a first and second dose of compound can be distinguished from one another. In these experiments, mice received a first dose of either vehicle or compound, which differentiated the OPCs and reduced the size of the OPC population. Five, fourteen, or twenty-one days later, mice received a second dose of compound and the response to the second dose was measured. These intervals tested whether newly generated OPCs could respond to compound and differentiate into oligodendrocytes. It also tested what the minimum interval was between two doses to get a nearly full response from the second dose.
Mice were treated with a vehicle control and/or Compound 78. The specific treatment groups were as follows: (1) single dose of the vehicle control on day 1; (2) a dose of the vehicle control on day 0 and a dose of compound 78 on day 5; (3) a first dose of compound 78 on day 0 and a second dose of compound 78 on day 5; (4) a first dose of compound 78 on day 0 and a second dose of compound 78 on day 14; and (5) a first dose of compound 78 on day 0 and a second dose of compound 78 on day 21. As described in the above examples, the animals were sacrificed three days after the last dose and their brains were harvested for analysis. GPR17+ expression in the brain tissue was assessed as described herein. Then, the mice were sacrificed 3 days after the second dose and the brains were harvested for analysis.
Histology was performed as described in Example 244 using reagents described in Table xx (below).
Images obtained from the histology preparations were analyzed using a custom protocol implemented with Visiopharm software to count GPR17+ cells.

The subject of series [11] is GPR17+ cells (newly differentiated oligodendrocytes). The conditions noted are these: mouse.
Setting [12] is: 11-point dose response, 10,000 nM to 0.169 nM, BLQ = below limit of quantitation, read-out: IC50 Values on PDGFRα Kinase Inhibition, IC50.

Take “3-[4-(5-benzylpyrimidin-2-yl)piperazin-1-yl]-6-(1-methyl-1H-pyrazol-3-yl)pyrazolo[1,5-a]pyridine [Compound 38]”: the IC50 (usually the concentration that inhibits the measured activity by half) in series [1] (setting [12]) was determined as 4750 nM. In addition, in [2], the “GPR17 Fold Induction (Over Vehicle; 3 μM)” value worked out at 7.04 and the “GPR17 Fold Induction (Over Vehicle; 5 μM)” value came to 6.02. Moreover, the “MBP Fold Induction (Over vehicle)” value in series [3] amounted to 1.41.
With `Cn1cc(-c2ccc3c(N4CCN(c5ncc(C(O)c6ccc(F)cc6)cn5)CC4)cnn3c2)cn1` (stereo not shown) [Compound 26, (4-fluorophenyl)(2-{4-[6-(1-methyl-1H-pyrazol-4-yl)pyrazolo[1,5-a]pyridin-3-yl]piperazin-1-yl}pyrimidin-5-yl)methanol], the “GPR17 Fold Induction (Over Vehicle; 3 μM)” value in [4] is 13.87. Besides, in series [4] (5 μM (10× concentration, final 0.5 μM)), the “GPR17 Fold Induction (Over Vehicle; 5 μM)” value is reported as 4.97. Besides, the fold induction at 3.3 mg/kg in series [5] was 12.1. Also, the “MBP Fold Induction (Over vehicle)” value in [6] is listed as 5.23. Besides, the “IC50 Values on PDGFRα Kinase Inhibition, IC50 (nM)” value in series [1] (11-point dose response, 10,000 nM to 0.169 nM, BLQ = below limit of quantitation) is recorded as “BLQ”. Also, the “number of newly generated, GPR17+, oligodendrocytes/mm^2” value in [7] was “dose responsive induction”.
For `C[C@@H](OC(=O)N1CCN(c2cnn3cc(-c4cnn(C)c4)ccc23)CC1)c1ccc(Cl)cc1` [Compound 78, (1R)-1-(4-Chlorophenyl)ethyl 4-[6-(1-methyl-1H-pyrazol-4-yl)pyrazolo[1,5-a]pyridin-3-yl]piperazine-1-carboxylate], in series [8], the Half-life entry is recorded as “shorter half-life than Compound 6”. The “GPR17 Fold Induction (Over Vehicle; 3 μM)” value in series [4] stood at 13.71. Besides, the fold induction at 3 mg/kg in series [5] was 14.9. Also, the “MBP Fold Induction (Over vehicle)” value in series [6] turned out to be 10.93. For the same compound, the IC50 in series [1] (20 ng purified PDGFRα, Poly (Glu4Tyr1) substrate, two hours, 11-point dose response, read-out: IC50 Values on PDGFRα Kinase Inhibition) is less than 1000 nM; in series [1] (setting [12]) it was less than 0.17 nM. For the same compound, the “Time post administration until number of OPCs in the brain was comparable to control animals” value in [9] (single administration 5 mg/kg) was “about 9 days”. In [9] (single administration, Compound 78 compared to Compound 6), the “OPC population recovery after 6 days” value is “greater recovery”. Further, the “GPR17+ cells within the brain tissue” value in [10] (Group 2: vehicle on day 0, first dose of compound on day 5, sacrificed three days after the last dose) is on record as “significant numbers of GPR17+ cells”. Further, the “GPR17+ cells after second dose” value in series [10] (Group 3: two doses at a dosing interval of 5 days, compared to dosing intervals of 14 days and 21 days) was “significantly fewer GPR17+ cells”. The “Dosing interval necessary to see any effect on oligodendrocyte generation from the second administration” value in series [10] (mice, two separate doses) is given as “greater than 5 days”.
`CN(C)CCC=C1c2ccccc2COc2ccccc21` [Doxepin]: the “In vivo GPR17+ cells, GPR17 Fold Induction (Over Vehicle)” value in [11] turned out to be 1.36.
